ChEMBL document CHEMBL1125961, “Monodeoxy-1,4:3,6-dianhydrohexitol nitrates” (1991)
Activity calls are given as the source filed them. The rule behind the calls is not given here.

What was measured:
[1] = species on record: Oryctolagus cuniculus; test: Compound was evaluated for reduction of arterial medium pressure of rabbit by 30 mm Hg; format: functional, Artery
[2] = test system: Rattus norvegicus; test: Compound was evaluated for T-wave increase of rat EKG measured as percent reduction after 30 min at a dosage of 200 mg/kg; format: functional
[3] = test system: Rattus norvegicus; test: Compound was evaluated for T-wave increase of rat EKG measured as percent reduction after 30 min at a dosage of 60 mg/kg; format: functional
[4] = test system: Rattus norvegicus; test: Compound was evaluated for T-wave increase of rat EKG measured as percent reduction after 30 min at a dosage of 100 mg/kg; NE means no effect; format: functional, organism-based; set-up: dose 100 mg/kg
[5] = test system: Rattus norvegicus; test: Compound was evaluated for T-wave increase of rat EKG measured as percent reduction after 30 min at a dosage of 4 mg/kg; format: functional
[6] = test system: Rattus norvegicus; test: Compound was evaluated for T-wave increase of rat EKG measured as percent reduction after 30 min at a dosage of 8 mg/kg; format: functional
[7] = Oryctolagus cuniculus, Artery, read-out: ED30

| SMILES | ED30 [1, 7] [mg/kg] | ED30 [1] [mg/kg] | other results |
| --- | --- | --- | --- |
| O=[N+]([O-])OC1COC2C1OC[C@@H]2Cl (stereo in doubt; 5a) | 0.1 |  | Reduction [2]: -38% |
| O=[N+]([O-])OC1CO[C@@H]2C(O)CO[C@H]12 (single isomer, unassigned) [ISOSORBIDE MONONITRATE] |  | 3.43 | Reduction [3]: -43% |
| O=[N+]([O-])OC1COC2C1OC[C@@H]2Cl (stereo in doubt; 5b) [listing 1 of 2 here] |  | 0.14 |  |
| O=[N+]([O-])OC1COC2C1OC[C@@H]2Cl (stereo in doubt; 5b) [listing 2 of 2 here] |  |  | Reduction [4]: inactive |
| O=[N+]([O-])OC1COC2CCOC21 (stereo in doubt; 6a) | 0.6 |  | Reduction ([2]; 200 mg/kg): -38% |
| O=[N+]([O-])OC1COC2CCOC21 (stereo in doubt; 6b) |  | 1 | Reduction ([2]; 200 mg/kg): -33% |
| O=[N+]([O-])O[C@H]1CO[C@H]2[C@@H]1OC[C@H]2O[N+](=O)[O-] [ISOSORBIDE DINITRATE] | 0.08 |  | Reduction [5]: -75% |
| O=[N+]([O-])O[C@@H]1CO[C@H]2[C@@H]1OC[C@@H]2O [ISOSORBIDE MONONITRATE] |  | 0.31 | Reduction [6]: -59% |
